Data published in patent publication US20150018384A1, “TREATMENT FOR HIGH CHOLESTEROL” (FibroGen, Inc., priority 2012, published 2015).

System: Cholesterol Biosynthesis Genes in the Mouse Liver
Experiment: Microarray expression of cholesterol biosynthesis genes in mouse liver
Assay type: in vivo
Conditions: 10 mg/kg oral
Description: A number of PHI compounds were evaluated for their effect on the expression of cholesterol biosynthesis genes in mouse liver. […] Liver tissue was harvested and stored in RNALater (Life Technologies). Total RNA was isolated with Trizol (Life Technologies) and purified with RNEasy96 (Qiagen) according to the manufacturers' protocols. RNA concentration was measured by NanoDrop (Thermo), and quality was assessed by Bioanalyzer (Agilent).
Biotinylated microarray probe was prepared using the 3′IVT Express kit (Affymetrix) and hybridized to mouse 430A 2.0 arrays as recommended in the manufacturer's protocol. Arrays were stained, washed, and scanned using Affymetrix equipment and software. Three arrays were run for each treatment and time point, each representing the liver sample from one individual animal.
Animals were sacrificed 4 h or 8 h later. Each compound was tested in a separate animal study with separate controls. Liver tissue was harvested and stored in RNALater (Life Technologies). Total RNA was isolated with Trizol (Life Technologies) and purified with RNEasy96 (Qiagen) according to the manufacturers' protocols. RNA concentration was measured by NanoDrop (Thermo), and quality was assessed by Bioanalyzer (Agilent).
For microarray analysis, RNA from animals in each treatment group was pooled in pairs (n=3 pairs for 4 h vehicle, n=2 pairs for all other treatment groups, for a total of 13 arrays per compound study). This approach was used to improve the signal-to-noise ratio on microarrays. Biotinylated probe was prepared using the One-Cycle cDNA synthesis kit (Affymetrix) and hybridized to mouse 430A 2.0 arrays as recommended in the manufacturer's protocol. Arrays were stained, washed, and scanned using Affymetrix equipment and software.
Array quality was assessed with GeneChip Operating System and/or Command Console software (Affymetrix). CEL files were uploaded to GeneSpring 7.3.1 (Agilent) using GC-RMA baseline correction. Principal Components Analysis was used to identify and reject outlier arrays. Data are reported as fold-change compared to timepoint-matched vehicle controls from the same study. Values less than 1.0 indicate a reduction of RNA in the treated animal liver tissue.

Structure (SMILES): Cc1cccc(C)c1Oc1ccc2c(O)c(C(=O)NCC(=O)O)nc(C#N)c2c1 [Compound I, {[1-Cyano-7-(2,6-dimethyl-phenoxy)-4-hydroxy-isoquinoline-3-carbonyl]-amino}-acetic acid]
- 3-hydroxy-3-methylglutaryl-Coenzyme A reductase (Hmgcr) RNA expression (4 h): 0.41 fold-change
- 3-hydroxy-3-methylglutaryl-Coenzyme A synthase 1 (Hmgcs1) RNA expression (4 h): 1.43 fold-change
- 7-dehydrocholesterol reductase (Dhcr7) RNA expression (4 h): 1.41 fold-change
- NAD(P) dependent steroid dehydrogenase-like (Nsdhl) RNA expression (4 h): 1.66 fold-change
- acetyl-Coenzyme A acetyltransferase 2 (Acat2) RNA expression (4 h): 1.21 fold-change
- cytochrome P450, family 51 (Cyp51) RNA expression (4 h): 0.81 fold-change
- farnesyl diphosphate farnesyl transferase 1 (Fdft1) RNA expression (4 h): 0.85 fold-change
- farnesyl diphosphate synthetase (Fdps) RNA expression (4 h): 1.45 fold-change
- isopentenyl-diphosphate delta isomerase (Idi1) RNA expression (4 h): 1.40 fold-change
- lanosterol synthase (Lss) RNA expression (4 h): 0.74 fold-change
- mevalonate (diphospho) decarboxylase (Mvd) RNA expression (4 h): 0.45 fold-change
- mevalonate kinase (Mvk) RNA expression (4 h): 1.02 fold-change
- phosphomevalonate kinase (Pmvk) RNA expression (4 h): 1.25 fold-change
- squalene epoxidase (Sqle) RNA expression (4 h): 1.36 fold-change
- sterol-C4-methyl oxidase-like (Sc4mol) RNA expression (4 h): 0.88 fold-change
- sterol-C5-desaturase (fungal ERG3, delta-5-desaturase) homolog (S. cerevisae) (Sc5d) RNA expression (4 h): 0.87 fold-change
- 3-hydroxy-3-methylglutaryl-Coenzyme A reductase (Hmgcr) RNA expression (8 h): 0.17 fold-change
- 3-hydroxy-3-methylglutaryl-Coenzyme A synthase 1 (Hmgcs1) RNA expression (8 h): 0.19 fold-change
- 7-dehydrocholesterol reductase (Dhcr7) RNA expression (8 h): 0.30 fold-change
- NAD(P) dependent steroid dehydrogenase-like (Nsdhl) RNA expression (8 h): 0.21 fold-change
- acetyl-Coenzyme A acetyltransferase 2 (Acat2) RNA expression (8 h): 0.43 fold-change
- cytochrome P450, family 51 (Cyp51) RNA expression (8 h): 0.12 fold-change
- farnesyl diphosphate farnesyl transferase 1 (Fdft1) RNA expression (8 h): 0.32 fold-change
- farnesyl diphosphate synthetase (Fdps) RNA expression (8 h): 0.16 fold-change
- isopentenyl-diphosphate delta isomerase (Idi1) RNA expression (8 h): 0.12 fold-change
- lanosterol synthase (Lss) RNA expression (8 h): 0.28 fold-change
- mevalonate (diphospho) decarboxylase (Mvd) RNA expression (8 h): 0.19 fold-change
- mevalonate kinase (Mvk) RNA expression (8 h): 0.37 fold-change
- phosphomevalonate kinase (Pmvk) RNA expression (8 h): 0.41 fold-change
- squalene epoxidase (Sqle) RNA expression (8 h): 0.16 fold-change
- sterol-C4-methyl oxidase-like (Sc4mol) RNA expression (8 h): 0.11 fold-change
- sterol-C5-desaturase (fungal ERG3, delta-5-desaturase) homolog (S. cerevisae) (Sc5d) RNA expression (8 h): 0.54 fold-change
